{"source": "ChEMBL document CHEMBL3132801", "about": "“Meridianin G and its analogs as antimalarial agents” (Medchemcomm, 2013)", "key": {"Plasmodium falciparum [1]": {"test_system": "Plasmodium falciparum", "test": "Antimicrobial activity against Plasmodium falciparum NF54", "type": "functional"}, "Aspergillus fumigatus": {"test_system": "Aspergillus fumigatus", "test": "Antimicrobial activity against Aspergillus fumigatus by NCCLS method", "type": "functional, organism-based"}, "Candida albicans": {"test_system": "Candida albicans", "test": "Antimicrobial activity against Candida albicans by NCCLS method", "type": "functional, organism-based"}, "Cryptococcus neoformans": {"test_system": "Cryptococcus neoformans", "test": "Antimicrobial activity against Cryptococcus neoformans by NCCLS method", "type": "functional, organism-based"}, "Staphylococcus aureus [2]": {"test_system": "Staphylococcus aureus", "test": "Antimicrobial activity against methicillin-resistant Staphylococcus aureus by NCCLS method", "type": "functional, organism-based"}, "Staphylococcus aureus [3]": {"test_system": "Staphylococcus aureus", "test": "Antimicrobial activity against Staphylococcus aureus by NCCLS method", "type": "functional, organism-based"}, "Leishmania donovani": {"test_system": "Leishmania donovani", "test": "Antileishmanial activity against Leishmania donovani promastigotes after 48 hrs by Alamar Blue assay", "type": "functional, organism-based", "conditions": "Leishmania donovani, 48 h; read-out: IC50"}, "[4]": {"test": "Selectivity index, ratio of IC50 for pig LLC-PK1 cells to IC50 for Plasmodium falciparum W2", "type": "toxicity, cell-based", "conditions": "read-out: Ratio IC50"}, "[5]": {"test": "Selectivity index, ratio of IC50 for african green monkey Vero cells to IC50 for Plasmodium falciparum W2", "type": "toxicity, cell-based", "conditions": "read-out: Ratio IC50"}, "[6]": {"test": "Selectivity index, ratio of IC50 for human HepG2 cells to IC50 for Plasmodium falciparum W2", "type": "toxicity, cell-based", "conditions": "read-out: Ratio IC50"}, "[7]": {"test": "Selectivity index, ratio of IC50 for pig LLC-PK1 cells to IC50 for Plasmodium falciparum D6", "type": "toxicity, cell-based", "conditions": "read-out: Ratio IC50"}, "[8]": {"test": "Selectivity index, ratio of IC50 for african green monkey Vero cells to IC50 for Plasmodium falciparum D6", "type": "toxicity, cell-based", "conditions": "read-out: Ratio IC50"}, "[9]": {"test": "Selectivity index, ratio of IC50 for human HepG2 cells to IC50 for Plasmodium falciparum D6", "type": "toxicity, cell-based", "conditions": "read-out: Ratio IC50"}, "LLC-PK1": {"test_system": "LLC-PK1", "test": "Cytotoxicity against a pig LLC-PK1 cells after 48 hrs by Neutral Red assay", "type": "cell-based", "conditions": "Sus scrofa, LLC-PK1, 48 h"}, "Vero": {"test_system": "Vero", "test": "Cytotoxicity against african green monkey Vero cells after 48 hrs by Neutral Red assay", "type": "cell-based", "conditions": "Chlorocebus sabaeus"}, "HepG2": {"test_system": "HepG2", "test": "Cytotoxicity against human HepG2 cells after 48 hrs by Neutral Red assay", "type": "cell-based", "conditions": "HepG2, 48 h"}, "Plasmodium falciparum [10]": {"test_system": "Plasmodium falciparum", "test": "Antimicrobial activity against Plasmodium falciparum W2 after 72 hrs by LDH activity assay", "type": "functional, organism-based", "conditions": "Plasmodium falciparum, W2, 72 h; read-out: IC50"}, "Plasmodium falciparum [11]": {"test_system": "Plasmodium falciparum", "test": "Antimicrobial activity against Plasmodium falciparum D6 after 72 hrs by LDH activity assay", "type": "functional, organism-based", "conditions": "Plasmodium falciparum, D6, 72 h; read-out: IC50"}}, "note": "Activity calls are given as the source filed them. The rule behind the calls is not given here.", "data": [{"smiles": "CN1CCN(c2ncc(-c3ccccc3)c(-c3c[nH]c4ccccc34)n2)CC1", "values": [{"measurement": "MIC", "setting": "Plasmodium falciparum [1]", "value": 3, "unit": "µM"}]}, {"smiles": "Nc1nccc(-c2c[nH]c3ccc(Br)cc23)n1", "note": "[MERIDIANIN C]", "values": [{"measurement": "Activity", "setting": "Aspergillus fumigatus", "value": "inactive"}, {"measurement": "Activity", "setting": "Candida albicans", "value": "inactive"}, {"measurement": "IC50", "setting": "Cryptococcus neoformans", "value": 56.5, "unit": "µM"}, {"measurement": "MBC", "setting": "Cryptococcus neoformans", "value": "inactive"}, {"measurement": "MIC", "setting": "Cryptococcus neoformans", "value": "inactive"}, {"measurement": "IC50", "setting": "Staphylococcus aureus [2]", "value": "Not Active"}, {"measurement": "MBC", "setting": "Staphylococcus aureus [2]", "value": "inactive"}, {"measurement": "MIC", "setting": "Staphylococcus aureus [2]", "value": "inactive"}, {"measurement": "IC50", "setting": "Staphylococcus aureus [3]", "value": "Not Active"}, {"measurement": "MBC", "setting": "Staphylococcus aureus [3]", "value": "inactive"}, {"measurement": "MIC", "setting": "Staphylococcus aureus [3]", "value": "inactive"}, {"measurement": "IC50", "setting": "Leishmania donovani", "value": 64.9, "unit": "µM"}, {"measurement": "selectivity ratio", "setting": "[4]", "value": "> 7.4"}, {"measurement": "selectivity ratio", "setting": "[5]", "value": "> 7.4"}, {"measurement": "selectivity ratio", "setting": "[6]", "value": "> 7.4"}, {"measurement": "selectivity ratio", "setting": "[7]", "value": "> 6"}, {"measurement": "selectivity ratio", "setting": "[8]", "value": "> 6"}, {"measurement": "selectivity ratio", "setting": "[9]", "value": "> 6"}, {"measurement": "IC50", "setting": "LLC-PK1", "value": "> 87", "unit": "µM"}, {"measurement": "IC50", "setting": "Vero", "value": "> 87", "unit": "µM"}, {"measurement": "IC50", "setting": "HepG2", "value": "> 87", "unit": "µM"}, {"measurement": "IC50", "setting": "Plasmodium falciparum [10]", "value": 11.7, "unit": "µM"}, {"measurement": "IC50", "setting": "Plasmodium falciparum [11]", "value": 14.4, "unit": "µM"}]}, {"smiles": "Nc1nccc(-c2cn(C(=O)c3ccccc3)c3ccc(Br)cc23)n1", "values": [{"measurement": "Activity", "setting": "Aspergillus fumigatus", "value": "inactive"}, {"measurement": "Activity", "setting": "Candida albicans", "value": "inactive"}, {"measurement": "IC50", "setting": "Cryptococcus neoformans", "value": 24.3, "unit": "µM"}, {"measurement": "MBC", "setting": "Cryptococcus neoformans", "value": "inactive"}, {"measurement": "MIC", "setting": "Cryptococcus neoformans", "value": "inactive"}, {"measurement": "IC50", "setting": "Staphylococcus aureus [2]", "value": "Not Active"}, {"measurement": "MBC", "setting": "Staphylococcus aureus [2]", "value": "inactive"}, {"measurement": "MIC", "setting": "Staphylococcus aureus [2]", "value": "inactive"}, {"measurement": "IC50", "setting": "Staphylococcus aureus [3]", "value": "Not Active"}, {"measurement": "MBC", "setting": "Staphylococcus aureus [3]", "value": "inactive"}, {"measurement": "MIC", "setting": "Staphylococcus aureus [3]", "value": "inactive"}, {"measurement": "IC50", "setting": "Leishmania donovani", "value": 105, "unit": "µM"}, {"measurement": "selectivity ratio", "setting": "[4]", "value": "> 16"}, {"measurement": "selectivity ratio", "setting": "[5]", "value": "> 16"}, {"measurement": "selectivity ratio", "setting": "[6]", "value": "> 16"}, {"measurement": "selectivity ratio", "setting": "[7]", "value": "> 8.5"}, {"measurement": "selectivity ratio", "setting": "[8]", "value": "> 8.5"}, {"measurement": "selectivity ratio", "setting": "[9]", "value": "> 8.5"}, {"measurement": "IC50", "setting": "LLC-PK1", "value": "> 64", "unit": "µM"}, {"measurement": "IC50", "setting": "Vero", "value": "> 64", "unit": "µM"}, {"measurement": "IC50", "setting": "HepG2", "value": "> 64", "unit": "µM"}, {"measurement": "IC50", "setting": "Plasmodium falciparum [10]", "value": 3.98, "unit": "µM"}, {"measurement": "IC50", "setting": "Plasmodium falciparum [11]", "value": 7.45, "unit": "µM"}]}]}
